# Laboratory results published in ChEMBL document CHEMBL3885861, “Open TG-GATES”.
# Species on record: Rattus norvegicus
# Experiment: Open TG-GATES - Regimen: Single
# Type: toxicity, organism-based, Sprague-Dawley
# Design: regimen Single, gender Male, age 6 weeks
# Details: in vivo, po, route gavage; for gamma-GTP / ALP / AST / CRE / DBIL / GLC / IP / K / LDH / Na / PL / RALB / TBIL / TC / TP: tissue Plasma; for Bas / Eos / Lym / MCHC / MCV / Mono / Neu / RBC / Ret / WBC: tissue Blood; for KIDNEY_L / KIDNEY_R / KIDNEY_TOTAL: tissue Kidney; for LIVER: tissue Liver
# [1] = 200 mg/kg, 3 h, dose level Middle
# [2] = 200 mg/kg, 6 h, dose level Middle
# [3] = 200 mg/kg, 9 h, dose level Middle
# [4] = 200 mg/kg, 24 h, dose level Middle
# [5] = 600 mg/kg, 3 h, dose level High
# [6] = 600 mg/kg, 6 h, dose level High
# [7] = 600 mg/kg, 9 h, dose level High
# [8] = 600 mg/kg, 24 h, dose level High
structure (smiles),measurement,setting,value
CS(=O)(=O)O.Cc1ccc(NC(=O)c2ccc(CN3CCN(C)CC3)cc2)cc1Nc1nccc(-c2cccnc2)n1 [IMATINIB MESYLATE],gamma-GTP,"60 mg/kg, 24 h, dose level Low",0.9 IU/L
same,Bas,[1],0%
same,Eos,[1],0.6%
same,Lym,[1],76.2%
same,MCHC,[1],32.5%
same,MCV,[1],63 fL
same,Mono,[1],2.4%
same,Neu,[1],19.8%
same,RBC,[1],602.4 x10_4/ul
same,Ret,[1],10.1%
same,WBC,[1],94 x10_2/uL
same,KIDNEY_L,[1],0.8 g
same,KIDNEY_R,[1],0.9 g
same,KIDNEY_TOTAL,[1],1.7 g
same,LIVER,[1],8.5 g
same,ALP,[1],1473.2 IU/L
same,AST,[1],86.2 IU/L
same,CRE,[1],0.2 mg/dL
same,DBIL,[1],0.014 mg/dL
same,GLC,[1],185 mg/dL
same,IP,[1],8.5 mg/dL
same,K,[1],3.9 meq/L
same,LDH,[1],224.6 IU/L
same,Na,[1],142.7 meq/L
same,PL,[1],131.8 mg/dL
same,RALB,[1],4 g/dL
same,TBIL,[1],0.042 mg/dL
same,TC,[1],75.8 mg/dL
same,TP,[1],5.4 g/dL
same,gamma-GTP,[1],0.8 IU/L
same,Bas,[2],0%
same,Eos,[2],0%
same,Lym,[2],75.8%
same,MCHC,[2],32.7%
same,MCV,[2],63 fL
same,Mono,[2],1.8%
same,Neu,[2],21.6%
same,RBC,[2],605.6 x10_4/ul
same,Ret,[2],9.4%
same,WBC,[2],92.8 x10_2/uL
same,KIDNEY_L,[2],0.9 g
same,KIDNEY_R,[2],0.9 g
same,KIDNEY_TOTAL,[2],1.8 g
same,LIVER,[2],8.3 g
same,ALP,[2],1397.4 IU/L
same,AST,[2],83.8 IU/L
same,CRE,[2],0.2 mg/dL
same,DBIL,[2],0.014 mg/dL
same,GLC,[2],184.2 mg/dL
same,IP,[2],9.1 mg/dL
same,K,[2],3.8 meq/L
same,LDH,[2],187.4 IU/L
same,Na,[2],139.7 meq/L
same,PL,[2],147.6 mg/dL
same,RALB,[2],4 g/dL
same,TBIL,[2],0.046 mg/dL
same,TC,[2],81.6 mg/dL
same,TP,[2],5.4 g/dL
same,gamma-GTP,[2],0.8 IU/L
same,Bas,[3],0%
same,Eos,[3],0%
same,Lym,[3],78.6%
same,MCHC,[3],33.1%
same,MCV,[3],64.1 fL
same,Mono,[3],1%
same,Neu,[3],19.2%
same,RBC,[3],566.4 x10_4/ul
same,Ret,[3],10.1%
same,KIDNEY_L,[3],0.9 g
same,KIDNEY_R,[3],0.9 g
same,KIDNEY_TOTAL,[3],1.8 g
same,LIVER,[3],7.8 g
same,ALP,[3],1450.6 IU/L
same,AST,[3],80.6 IU/L
same,CRE,[3],0.2 mg/dL
same,DBIL,[3],0.016 mg/dL
same,GLC,[3],180 mg/dL
same,IP,[3],9 mg/dL
same,K,[3],4 meq/L
same,LDH,[3],197.8 IU/L
same,Na,[3],139.8 meq/L
same,PL,[3],145.8 mg/dL
same,RALB,[3],4.2 g/dL
same,TBIL,[3],0.062 mg/dL
same,TC,[3],82.6 mg/dL
same,TP,[3],5.5 g/dL
same,gamma-GTP,[3],0.9 IU/L
same,Bas,[4],0%
same,Eos,[4],0.6%
same,Lym,[4],81%
same,MCHC,[4],33%
same,MCV,[4],63.9 fL
same,Mono,[4],1.2%
same,Neu,[4],16.2%
same,RBC,[4],583.2 x10_4/ul
same,Ret,[4],7.9%
same,WBC,[4],97.7 x10_2/uL
same,KIDNEY_L,[4],0.9 g
same,KIDNEY_R,[4],0.9 g
same,KIDNEY_TOTAL,[4],1.8 g
same,LIVER,[4],8.6 g
same,ALP,[4],1768.2 IU/L
same,AST,[4],98.4 IU/L
same,CRE,[4],0.2 mg/dL
same,DBIL,[4],0.008 mg/dL
same,GLC,[4],180.4 mg/dL
same,IP,[4],7.5 mg/dL
same,K,[4],4 meq/L
same,LDH,[4],181.8 IU/L
same,Na,[4],143 meq/L
same,PL,[4],148.4 mg/dL
same,RALB,[4],4.1 g/dL
same,TBIL,[4],0.042 mg/dL
same,TC,[4],79 mg/dL
same,TP,[4],5.8 g/dL
same,gamma-GTP,[4],0.8 IU/L
same,Bas,[5],0%
same,Eos,[5],1%
same,Lym,[5],74.2%
same,MCHC,[5],32.7%
same,MCV,[5],63.3 fL
same,Mono,[5],2.6%
same,Neu,[5],22.2%
same,RBC,[5],595.8 x10_4/ul
same,Ret,[5],9.3%
same,WBC,[5],88.6 x10_2/uL
same,KIDNEY_L,[5],0.9 g
same,KIDNEY_R,[5],0.9 g
same,KIDNEY_TOTAL,[5],1.8 g
same,LIVER,[5],8.9 g
same,ALP,[5],1505 IU/L
same,AST,[5],86 IU/L
same,CRE,[5],0.2 mg/dL
same,DBIL,[5],0.01 mg/dL
same,GLC,[5],185.4 mg/dL
same,IP,[5],9 mg/dL
same,K,[5],3.9 meq/L
same,LDH,[5],244.6 IU/L
same,Na,[5],143.3 meq/L
same,PL,[5],138.4 mg/dL
same,RALB,[5],4.2 g/dL
same,TBIL,[5],0.044 mg/dL
same,TC,[5],79 mg/dL
same,TP,[5],5.6 g/dL
same,gamma-GTP,[5],0.8 IU/L
same,Bas,[6],0%
same,Eos,[6],0.8%
same,Lym,[6],67.8%
same,MCHC,[6],33.1%
same,MCV,[6],63.5 fL
same,Mono,[6],1.6%
same,Neu,[6],28.6%
same,RBC,[6],589.6 x10_4/ul
same,Ret,[6],8.9%
same,WBC,[6],104.9 x10_2/uL
same,KIDNEY_L,[6],0.9 g
same,KIDNEY_R,[6],0.9 g
same,KIDNEY_TOTAL,[6],1.8 g
same,LIVER,[6],7.9 g
same,ALP,[6],1661.2 IU/L
same,AST,[6],88.2 IU/L
same,CRE,[6],0.2 mg/dL
same,DBIL,[6],0.016 mg/dL
same,GLC,[6],180.4 mg/dL
same,IP,[6],8.9 mg/dL
same,K,[6],3.9 meq/L
same,LDH,[6],553.8 IU/L
same,Na,[6],140 meq/L
same,PL,[6],159.4 mg/dL
same,RALB,[6],4.1 g/dL
same,TBIL,[6],0.048 mg/dL
same,TC,[6],91.6 mg/dL
same,TP,[6],5.3 g/dL
same,gamma-GTP,[6],0.8 IU/L
same,Bas,[7],0%
same,Eos,[7],0%
same,Lym,[7],72.2%
same,MCHC,[7],32.6%
same,MCV,[7],63.6 fL
same,Mono,[7],1.6%
same,Neu,[7],25.2%
same,RBC,[7],592.6 x10_4/ul
same,Ret,[7],9.7%
same,KIDNEY_L,[7],0.9 g
same,KIDNEY_R,[7],0.9 g
same,KIDNEY_TOTAL,[7],1.8 g
same,LIVER,[7],7.8 g
same,ALP,[7],1627 IU/L
same,AST,[7],85 IU/L
same,CRE,[7],0.2 mg/dL
same,DBIL,[7],0.016 mg/dL
same,GLC,[7],183.2 mg/dL
same,IP,[7],8.8 mg/dL
same,K,[7],3.8 meq/L
same,LDH,[7],180.8 IU/L
same,Na,[7],140.1 meq/L
same,PL,[7],140.8 mg/dL
same,RALB,[7],4.2 g/dL
same,TBIL,[7],0.054 mg/dL
same,TC,[7],78 mg/dL
same,TP,[7],5.5 g/dL
same,gamma-GTP,[7],0.8 IU/L
same,Bas,[8],0%
same,Eos,[8],0.8%
same,Lym,[8],76.4%
same,MCHC,[8],33.1%
same,MCV,[8],62.5 fL
same,Mono,[8],2%
same,Neu,[8],20.4%
same,RBC,[8],584.2 x10_4/ul
same,Ret,[8],7.5%
same,WBC,[8],80.4 x10_2/uL
same,KIDNEY_L,[8],0.9 g
same,KIDNEY_R,[8],0.9 g
same,KIDNEY_TOTAL,[8],1.9 g
same,LIVER,[8],7.8 g
same,ALP,[8],1838.6 IU/L
same,AST,[8],118.4 IU/L
same,CRE,[8],0.2 mg/dL
same,DBIL,[8],0.016 mg/dL
same,GLC,[8],175.2 mg/dL
same,IP,[8],7.8 mg/dL
same,K,[8],4.1 meq/L
same,LDH,[8],227.6 IU/L
same,Na,[8],141.8 meq/L
same,PL,[8],131.4 mg/dL
same,RALB,[8],4 g/dL
same,TBIL,[8],0.072 mg/dL
same,TC,[8],72.6 mg/dL
same,TP,[8],5.6 g/dL
same,gamma-GTP,[8],0.9 IU/L
